Counter-ions that a name gives are not always drawn.
Tests used:
[1] = background statement; cited from earlier work
[2] = target: T1, A. flavus Serine Protease (Aspergillus flavus, UniProt P35211); assay: Residual serine protease activity after preincubation with serine protease inhibitors; type: biochemical; conditions: for Prevention of hydrolysis of Suc-Ala-Ala-Pro-Leu-pNA by A. flavus serine protease (in words): summary of Table 3
T1 construct: The extracellular serine proteases of A. fumigatus and A. flavus were purified from 5 day cultures; endogenous in cells; host or cells: Aspergillus flavus 5-day culture, extracellular fluid, bacitracin-Sepharose 4B
Description: (§1) The serine protease inhibitors 4-carboxamido-substituted cephem (L-658,758), (S-(R*,S*))-4-((3,3-diethyl-1-((1-(4-methyl-phenyl)butylamino)carbonyl)-4-oxo-2-azetidinyl)oxy)-benzeneacetic acid 2-amino-2-methyl-1-propanol salt (L-680, 833) are known to irreversibly bind to the active site of the elastolytic serine protease obtained from neutrophils. It is also known that the serine protease inhibitor PMSF irreversibly binds to the active site of all serine proteases. The ability of the serine protease inhibitors L-658,758 and L-680,833, both of which were obtained from Merck Chemical Company, Rahway, N.J., and PMSF to block the proteolytic activity of the elastolytic serine proteases from Aspergillus fumigatus and Aspergillus flavus were tested as follows.
(§2) Reaction mixtures for each protease were prepared by adding the protease to 0.1M Hepes, pH 7.5. The experimental samples were then preincubated for 30 minutes at 22° C. with 1 mM of the inhibitors. At the end of the 30 minute pre-incubation, the chromogenic substrate Suc-Ala-Ala-Pro-Leu-p-Na at a final concentration of 1 mM was added to each sample. The enzyme activity in the samples was monitored by measuring the release of pNA from the chromogenic substrate at 22° C. during a 10 minute reaction time. The enzyme activity in each experimental sample as a percentage of the enzyme activity in the control sample which was taken to be 100% was then determined.

[3] = target: T2, A. fumigatus Serine Protease (Aspergillus fumigatus, UniProt P28296); assay: as above; type: biochemical; conditions: for Serine protease (SP) activity (%), A. fumigatus Serine Protease: inhibitor 1 mM, pH 7.5, 30 min preincubation at 22° C., control = 100%; for Prevention of hydrolysis of Suc-Ala-Ala-Pro-Leu-pNA by A. fumigatus serine protease (in words): summary of Table 3
T2 construct: The extracellular serine proteases of A. fumigatus and A. flavus were purified from 5 day cultures; endogenous in cells; host or cells: Aspergillus fumigatus 5-day culture, extracellular fluid, bacitracin-Sepharose 4B
Description: as §1, §2

[4] = target: porcine pancreatic elastolytic serine protease (Sus scrofa, UniProt P00772); assay: as above; type: biochemical; conditions: for Reduction of the activity of porcine serine protease (in words): summary of Table 3
Protocol: as §2

[5] = test system: CC(C)C[C@H](NC(=O)[C@@H]1CCCN1C(=O)[C@H](C)NC(=O)[C@H](C)NC(=O)CCC(=O)O)C(=O)Nc1ccc([N+](=O)[O-])cc1; assay: purified protein, by the assay type; conditions: other: 22° C., pH 8.0, Lineweaver-Burk plot
Protocol: (§3) First the Km values of the elastolytic serine proteases from A. fumigatus and A. flavus were calculated. […] The Km of the elastolytic serine proteases from A. fumigatus and A. flavus were determined using the synthetic chromogenic molecule Suc-Ala-Ala-Pro-Leu-pNa as a substrate. Reaction mixtures were prepared containing 5 μm of various concentrations of the chromogenic substrate dissolved in dimethyl sulfoxide, 990 μm of 0.1M Tris-HCl, buffer pH 8.0, and 5 μm of the aspergillus protease (0.65 mg/ml). The release of pNa from the substrate and the subsequent increase in absorbance of the reaction mixture at 410 nm was monitored at 22° C. for 10 minutes using a Hewlett Packard 8451A diode array spectrophotometer. The initial rates of the enzymatic reaction at 22° C. were then determined for each concentration of substrate and the reciprocals plotted on a Lineweaver-Burk plot.
(§4) Next the ability of the reversible subtilisin-type inhibitors Barley ASI, purified SSI, and recombinant SSI and of the reversible chymotrypsin-type inhibitors Eglin C, potato protease I1, and potato protease I2 to block hydrolysis of the synthetic chromogenic substrate by the aspergillus elastolytic serine proteases was evaluated. Various concentrations of each inhibitor were pre-incubated for 5 minutes in samples containing the buffer and protease. […]

[6] = statement without test; cited from earlier work
[7] = target: A. fumigatus elastolytic serine protease (Aspergillus fumigatus, UniProt P28296); assay: Inhibition constants (Ki) of reversible inhibitors for A. fumigatus elastolytic serine protease, chromogenic substrate; conditions: summary of Table 2
Protocol: as §3, §4

[8] = Toxicity of the composition in irradiated, uninoculated mice; type: in vivo, Balb/c mice; conditions: Experiment 1, seven 10 μl treatments of the 50 mg/ml composition over 48 hours
Protocol: Tests were conducted to assess the effect of treatment with the pharmaceutical compositions of the present invention on the pathogenesis of invasive pulmonary aspergillosis in immunocompromised animals. To prevent secondary bacterial or viral infections in the treated and control animals, pathogen-free eight-week old female Balb/c mice were housed in a Bioclean laminar flow hood and provided with oxytetracylcine (100 mg/l)-neomycin sulfate (10 mg/l), pH 2.5, from 7 days prior to irradiation until the end of each experiment. Following seven days of treatment with the antibiotics, one group of animals was made immunodeficient by exposure to 400 rads of gamma radiation from a Cesium 137 source.
To test the toxicity of the pharmaceutical composition of example 1, a second group of irradiated mice, inoculated with 30 ul of Tween alone were treated with a […] the pharmaceutical composition from example 1 according to the same schedule for a total of seven treatments.
Twenty-five, irradiated, uninoculated animals were also treated with […] of the pharmaceutical composition of example 4 according to the same schedule to assess the toxicity of the composition containing potato protease inhibitor in immunocompromised animals. The effect of treatment with the pharmaceutical composition of example 4 on the survival of uninoculated and aspergillus-inoculated animals is shown in Table 7.

[9] = inhibitor 1 mM, pH 7.5, 30 min preincubation at 22° C., control = 100%

Sequence of porcine pancreatic elastolytic serine protease (P00772 27-266): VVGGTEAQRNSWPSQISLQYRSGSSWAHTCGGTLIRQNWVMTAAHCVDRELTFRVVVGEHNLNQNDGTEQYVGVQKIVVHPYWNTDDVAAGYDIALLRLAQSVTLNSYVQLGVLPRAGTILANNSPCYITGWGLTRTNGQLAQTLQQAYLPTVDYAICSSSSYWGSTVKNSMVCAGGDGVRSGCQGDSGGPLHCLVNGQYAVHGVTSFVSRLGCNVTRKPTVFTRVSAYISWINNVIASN
T2 sequence (P28296 122-403): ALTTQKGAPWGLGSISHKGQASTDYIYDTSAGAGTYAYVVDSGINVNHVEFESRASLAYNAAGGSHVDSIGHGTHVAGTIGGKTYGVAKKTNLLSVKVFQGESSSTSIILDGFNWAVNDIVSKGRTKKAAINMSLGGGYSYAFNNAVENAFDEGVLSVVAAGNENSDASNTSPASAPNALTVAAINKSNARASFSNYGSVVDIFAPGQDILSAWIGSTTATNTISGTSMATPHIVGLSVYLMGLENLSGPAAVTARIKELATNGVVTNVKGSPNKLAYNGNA
T1 sequence (P35211 122-403): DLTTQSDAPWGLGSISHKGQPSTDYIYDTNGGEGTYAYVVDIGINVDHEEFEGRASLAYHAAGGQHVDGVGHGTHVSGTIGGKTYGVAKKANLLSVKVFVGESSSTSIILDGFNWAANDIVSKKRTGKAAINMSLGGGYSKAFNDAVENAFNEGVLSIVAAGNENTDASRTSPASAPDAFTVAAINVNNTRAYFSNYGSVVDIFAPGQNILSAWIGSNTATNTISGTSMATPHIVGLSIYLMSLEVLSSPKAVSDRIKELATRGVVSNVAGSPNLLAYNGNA
Sequence of A. fumigatus elastolytic serine protease (P28296 122-403): as the sequence (P28296 122-403) above

In the case of `C[C@@H]1[C@H](O)[C@@H](C)/C=C/C=C/C=C/C=C/C=C/C=C/C=C/[C@H](O[C@@H]2O[C@H](C)[C@@H](O)[C@H](N)[C@@H]2O)C[C@@H]2O[C@](O)(C[C@@H](O)C[C@@H](O)[C@H](O)CC[C@@H](O)C[C@@H](O)CC(=O)O[C@H]1C)C[C@H](O)[C@H]2C(=O)O` [amphotericin B], the Nephrotoxicity [1] is given as “serious side effect”.

In the case of `CO[C@H]1C(=O)N2C(C(=O)N3CCC[C@H]3C(=O)O)=C(COC(C)=O)CS(=O)(=O)[C@H]12` [L658,758, 4-carboxamido-substituted cephem], the “Serine protease (SP) activity (%), A. flavus Serine Protease” value [2, 9] is reported as 91%, the “Prevention of hydrolysis of Suc-Ala-Ala-Pro-Leu-pNA by A. flavus serine protease (in words)” value [2] is reported as “ineffective” and the “Serine protease (SP) activity (%), A. fumigatus Serine Protease” value [3] is reported as 93%. The “Prevention of hydrolysis of Suc-Ala-Ala-Pro-Leu-pNA by A. fumigatus serine protease (in words)” value [3] was “ineffective”, the “Serine protease (SP) activity (%), Porcine pancreas Serine Protease” value [4, 9] was 6.6% and the “Reduction of the activity of porcine serine protease (in words)” value (“Reduction” for short) [4] was “effective at reducing the activity”.

Molecule “A. flavus elastolytic serine protease (Aspergillus flavus)” has a Km [5] of 570 µM.

With `CCC[C@@H](NC(=O)N1C(=O)C(CC)(CC)[C@@H]1Oc1ccc(CC(=O)O)cc1)c1ccc(C)cc1` [L680,833, (S-(R*,S*))-4-((3,3-diethyl-1-((1-(4-methyl-phenyl)butylamino)carbonyl)-4-oxo-2-azetidinyl)oxy)-benzeneacetic acid 2-amino-2-methyl-1-propanol salt] the activity at 1000 µM ([2]; inhibitor 1 mM, pH 7.5, 30 min preincubation at 22° C., control = 100%, read-out: Serine protease (SP) activity (%), A. flavus Serine Protease) was 89%, the “Prevention of hydrolysis of Suc-Ala-Ala-Pro-Leu-pNA by A. flavus serine protease (in words)” value [2] was “ineffective” and the activity at 1000 µM ([3]; pH 7.5, read-out: Serine protease (SP) activity (%), A. fumigatus Serine Protease) was 93%. For the same molecule, the “Prevention of hydrolysis of Suc-Ala-Ala-Pro-Leu-pNA by A. fumigatus serine protease (in words)” value [3] was “ineffective”, the activity at 1000 µM ([4]; inhibitor 1 mM, pH 7.5, 30 min preincubation at 22° C., control = 100%, read-out: Serine protease (SP) activity (%), Porcine pancreas Serine Protease) was 12% and the “Reduction” value [4] was “effective at reducing the activity”.

In the case of `O=S(=O)(F)Cc1ccccc1` [PMSF], the “Serine protease (SP) activity (%), A. flavus Serine Protease” value [2, 9] is reported as 0%, the “Prevention of hydrolysis of Suc-Ala-Ala-Pro-Leu-pNA by A. flavus serine protease (in words)” value [2] is reported as “reduced the enzymatic activity” and the “Serine protease (SP) activity (%), A. fumigatus Serine Protease” value [3] is reported as 0.89%. For the same molecule, the “Prevention of hydrolysis of Suc-Ala-Ala-Pro-Leu-pNA by A. fumigatus serine protease (in words)” value [3] was “reduced the enzymatic activity”, the “Toxicity (in words)” value [6] was “highly toxic” and the “Serine protease (SP) activity (%), Porcine pancreas Serine Protease” value [4, 9] was 0%. For the same molecule, the “Reduction” value [4] was “reduced the enzymatic activity”.

“A. fumigatus elastolytic serine protease (Aspergillus fumigatus Af293)” gave a Km [5] of 350 µM.

B1: SSI: protein produced and secreted by streptomyces, purified from Streptomyces albogriseolus strains (protein, UniProt P01006 32-144, looked up)
Subtilisin inhibitor: DAPSALYAPSALVLTVGKGVSATTAAPERAVTLTCAPGPSGTHPAAGSACADLAAVGGDLNALTRGEDVMCPMVYDPVLLTVDGVWQGKRVSYERVFSNECEMNAHGSSVFAF
With B1 the “Inhibition of the elastolytic serine protease from A. fumigatus (in words)” value [7] was “greatest inhibitory effect” and the “Mortality of treated, uninoculated, immunocompromised animals” value [8] was “no mortality”.

From US5739283A, “Prevention of invasive pulmonary aspergillosis with serine proteinase inhibitors” (The Ohio State Research Foundation, priority 1995, dated 1998)
